Test results published in patent US20210145816A1, “PHARMACEUTICAL FORMULATION OF LONAFARNIB WITH A SULFOBUTYLETHER BETA-CYCLODEXTRIN” (Cyclolab Cyclodextrin Research and Development Laboratory …, priority 2019, published 2021).
In brackets after ≈: the same amount, converted by molar mass.

Experiments:
[1] = formulation of lonafarnib into a liquid vehicle with 2-hydroxypropyl beta cyclodextrin; format: physicochemical; details: 20% 2-hydroxypropyl beta cyclodextrin, lonafarnib 12 mg/ml
Method: A prior publication describing formulation of lonafarnib into a liquid vehicle with a cyclodextrin is known (Hernandez et al., Science Translational Medicine, 11, eaat3005 (2019)), but based on the disclosed data, even using high concentration (20%) of 2-hydroxypropyl beta cyclodextrin (hydroxypropyl betadex), a suspension of lonafarnib was obtained for the (pre)clinically relevant concentration of the drug (12 mg/ml). […] Consequently, present invention provides a significant formulation improvement over the teachings of said journal publication.

[2] = water; cited from earlier work
[3] = 20% 2-hydroxypropyl beta cyclodextrin, lonafarnib 12 mg/ml; cited from earlier work

## NC(=O)N1CCC(CC(=O)N2CCC([C@H]3c4ncc(Br)cc4CCc4cc(Cl)cc(Br)c43)CC2)CC1 [Lonafarnib]
[1]
  physical state of liquid formulation obtained (experiment reproduced by Cyclolab Ltd.): rough suspension, unsuitable for parenteral application
[2]
  aqueous solubility: 0.8 µg/mL (≈ 1.25 µM)
[3]
  physical state of liquid formulation obtained (Hernandez et al. 2019): suspension
